The structures appear in SMILES notation. Like-named read-outs stand apart in the source and are kept apart here.

Data set [1] can be described thus: Solubility of each salt of T-3811 in distilled water. It counts as physicochemical. Conditions: for pH: pH given beside the solubility of each salt in distilled water; for solubility at 3 h: thermodynamic from solid; for solubility at a physiologically acceptable pH: compared with the other salts of T-3811, in words. The method, then: This sample solution is exposed to ultrasonic wave irradiation 5 (SOLID STATE 1,200, Cho-onpa Kogyo) in cold water for 3 hours and then filtered through a filter with a pore size of 0.45-μm (MILLEX-HV13, MILLIPORE).

Data set [2] deals with Gram-positive and Gram-negative bacteria. Conditions: background statement, in words; cited from earlier work.
Data set [3] is described as follows: Solubility of T-3811 in the vicinity of neutral. It counts as physicochemical. The conditions noted are these: in words.
Data set [4] in a line: Stability against humidity. It counts as physicochemical. The conditions noted are these: in words.
Setting [5] is: about 50 mg salt in 2 ml distilled water, ultrasonic wave irradiation in cold water 3 hours, 0.45-μm filtrate, T-3811 content by liquid chromatography, read-out: Solubility.

For `CC(=O)O.C[C@H]1NCc2cc(-c3ccc4c(=O)c(C(=O)O)cn(C5CC5)c4c3OC(F)F)ccc21` [Acetate, (R)-1-cyclopropyl-8-difluoromethoxy-7-(1-methyl-2,3-dihydro-1H-5-isoindolyl)-4-oxo-1,4-dihydro-3-quinolinecarboxylic acid acetate], the pH in data set [1] amounted to 4.22. Moreover, in data set [1] (water), the solubility – broadly, how much of the substance goes into solution per volume – at 3 h turned out to be 6230 µg/mL.
`C[C@H]1NCc2cc(-c3ccc4c(=O)c(C(=O)O)cn(C5CC5)c4c3OC(F)F)ccc21.O=C(O)CC(O)(CC(=O)O)C(=O)O` [Citrate, (R)-1-cyclopropyl-8-difluoromethoxy-7-(1-methyl-2,3-dihydro-1H-5-isoindolyl)-4-oxo-1,4-dihydro-3-quinolinecarboxylic acid citrate]: the pH in data set [1] was 3.90. In data set [1] (setting [5]), the solubility at 3 h was 420 µg/mL.
Take `C[C@H]1NCc2cc(-c3ccc4c(=O)c(C(=O)O)cn(C5CC5)c4c3OC(F)F)ccc21` [Example T-3811, (R)-1-cyclopropyl-8-difluoromethoxy-7-(1-methyl-2,3-dihydro-1H-5-isoindolyl)-4-oxo-1,4-dihydro-3-quinoline-carboxylic acid]: the “activity against Gram-positive and Gram-negative bacteria” value in data set [2] is “excellent”. In addition, in data set [3], the “solubility in the vicinity of neutral” value is recorded as “low”.
Take `C[C@H]1NCc2cc(-c3ccc4c(=O)c(C(=O)O)cn(C5CC5)c4c3OC(F)F)ccc21.Cl` [Hydrochloride, (R)-1-cyclopropyl-8-difluoromethoxy-7-(1-methyl-2,3-dihydro-1H-5-isoindolyl)-4-oxo-1,4-dihydro-3-quinolinecarboxylic acid hydrochloride]: the pH in data set [1] worked out at 3.99. In data set [1] (water), the solubility at 3 h is 5450 µg/mL.
Regarding `C[C@H](O)C(=O)O.C[C@H]1NCc2cc(-c3ccc4c(=O)c(C(=O)O)cn(C5CC5)c4c3OC(F)F)ccc21` [L-lactate, (R)-1-cyclopropyl-8-difluoromethoxy-7-(1-methyl-2,3-dihydro-1H-5-isoindolyl)-4-oxo-1,4-dihydro-3-quinolinecarboxylic acid L-lactate], the pH in data set [1] is 4.40. For the same compound, in data set [1] (setting [5]), the solubility at 3 h is 1980 µg/mL.
Consider `C[C@H]1NCc2cc(-c3ccc4c(=O)c(C(=O)[O-])cn(C5CC5)c4c3OC(F)F)ccc21.C[C@H]1NCc2cc(-c3ccc4c(=O)c(C(=O)[O-])cn(C5CC5)c4c3OC(F)F)ccc21.[Mg+2]` [Magnesium salt, magnesium salt of (R)-1-cyclopropyl-8-difluoromethoxy-7-(1-methyl-2,3-dihydro-1H-5-isoindolyl)-4-oxo-1,4-dihydro-3-quinolinecarboxylic acid], for which, in data set [1] (about 50 mg salt in 2 ml distilled water, ultrasonic wave irradiation in cold water 3 hours, 0.45-μm filtrate, T-3811 content by liquid chromatography), the Solubility (in general, the concentration that dissolves in the medium under given conditions) came to 60 µg/mL. Moreover, the pH in data set [1] was found to be 7.58.
For `CS(=O)(=O)O.C[C@H]1NCc2cc(-c3ccc4c(=O)c(C(=O)O)cn(C5CC5)c4c3OC(F)F)ccc21` [Methanesulfonate, (R)-1-cyclopropyl-8-difluoromethoxy-7-(1-methyl-2,3-dihydro-1H-5-isoindolyl)-4-oxo-1,4-dihydro-3-quinolinecarboxylic acid methanesulfonate], the “solubility at a physiologically acceptable pH” value in data set [1] (listed as methanesulfonate of T-3811, methanesulfonate) was “much higher”; in data set [1] (listed as t-3811 methanesulfonate, methanesulfonate) it was “remarkably high”. Also, in data set [1], the pH is 3.66. For the same compound, the solubility at 3 h in data set [1] (setting [5]) was 16500 µg/mL.
Consider `C[C@H]1NCc2cc(-c3ccc4c(=O)c(C(=O)O)cn(C5CC5)c4c3OC(F)F)ccc21.O=P(O)(O)O` [Phosphate, (R)-1-cyclopropyl-8-difluoromethoxy-7-(1-methyl-2,3-dihydro-1H-5-isoindolyl)-4-oxo-1,4-dihydro-3-quinoline-carboxylic acid phosphate], for which the pH in data set [1] came out at 3.29. For the same compound, in data set [1] (setting [5]), the solubility at 3 h amounted to 8520 µg/mL.
As to `C[C@H]1NCc2cc(-c3ccc4c(=O)c(C(=O)[O-])cn(C5CC5)c4c3OC(F)F)ccc21.[Na+]` [Sodium salt, sodium (R)-1-cyclopropyl-8-difluoromethoxy-7-(1-methyl-2,3-dihydro-1H-5-isoindolyl)-4-oxo-1,4-dihydro-3-quinolinecarboxylate], in data set [1], the pH is given as 10.11. Moreover, in data set [1] (setting [5]), the solubility at 3 h came to 2340 µg/mL.
The corresponding values for `C[C@H]1NCc2cc(-c3ccc4c(=O)c(C(=O)O)cn(C5CC5)c4c3OC(F)F)ccc21.O=S(=O)(O)O` [Sulfate, (R)-1-cyclopropyl-8-difluoromethoxy-7-(1-methyl-2,3-dihydro-1H-5-isoindolyl)-4-oxo-1,4-dihydro-3-quinolinecarboxylic acid sulfate] are 3.46 and 1170 µg/mL.
Take `CS(=O)(=O)O.C[C@H]1NCc2cc(-c3ccc4c(=O)c(C(=O)O)cn(C5CC5)c4c3OC(F)F)ccc21.O` [T-3811 methanesulfonate hydrate, (R)-1-cyclopropyl-8-difluoromethoxy-7-(1-methyl-2,3-dihydro-1H-5-isoindolyl)-4-oxo-1,4-dihydro-3-quinolinecarboxylic acid methanesulfonate monohydrate]: in data set [4], the stability against humidity entry is “good”.

Values taken from patent US6337399B1, “Processes for producing 7-isoindolinequinolonecarboxylic derivatives and intermediates therefor, salts of 7-isoindolinequinolonecarboxylic acids, hydrates thereof, and composition containing the same as active ingredient” (priority 1997, dated 2002).
